Assay results published in ChEMBL document CHEMBL1201862, “PubChem BioAssay data set” (2004).
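Grown in 96-well plates, cells were treated for 48 hours with each compound at five concentrations. Insufficient inhibition: endpoint recorded as highest concentration tested. The concentration for 50% growth inhibition is given as GI50.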 Calls of active or inactive are those of the source. No stated cut-off is given here; in the data, active = GI50 up to about 1.1 µM and inactive = higher.

What was measured:
Assay in all cases: growth of human tumour cells (NCI), 48 h
T47D = system: T47D
DLD-1 = system: DLD-1
DMS-114 = system: DMS-114
HOP-18 = system: HOP-18
KM-20L2 = system: KM-20L2
LXFL 529 = system: LXFL 529
SNB-78 = system: SNB-78
XF498 = system: XF498
RXF 631 = system: RXF 631

`C=CCc1cccc2cc(C(N)=O)c(=N)oc12` was tested, and the GI50 (T47D) was 41.5 µM (inactive).

In the case of `c1ccc2sc(C3(N4CCCCC4)CCCCCC3)cc2c1`, the GI50 (T47D) is reported as 14.5 µM (inactive).

`COc1ccc(C(=O)c2[nH]c(Nc3cc(C)ccn3)c(C(=S)Nc3ccccc3)c2N)cc1` was tested, and the GI50 (T47D) was 51.2 µM (inactive).

In the case of `CCN1CCC(CNC(=O)c2ccc(N)cc2)N1CC` (stereo not given), the GI50 (T47D) is reported as > 100 µM (inactive).

With `Cc1ccccc1NC(=O)C(=O)CC(=O)c1sc(Nc2ccccc2[N+](=O)[O-])nc1C` the GI50 (T47D) was 27.2 µM (inactive).

With `COc1ccccc1-n1c(=O)n(C)c(=O)n1C(C)(C)C` the GI50 (T47D) was > 100 µM (inactive).

For `O=C1NC(=S)NC(=O)C1=C/C=C/c1ccc([N+](=O)[O-])cc1`, the GI50 (T47D) was 24.9 µM (inactive).

For `CC(C)c1cc(OCC(O)CO)cc(C(C)C)c1` (stereo not given), the GI50 (DLD-1) was > 100 µM (inactive), the GI50 (DMS-114) was > 100 µM (inactive) and the GI50 (HOP-18) was > 100 µM (inactive). The GI50 (KM-20L2) was > 100 µM (inactive), the GI50 (LXFL 529) was > 100 µM (inactive) and the GI50 (SNB-78) was > 100 µM (inactive). The GI50 (XF498) was > 100 µM (inactive).

For `CCCCCC(C)(C)CCC(=O)OC1OC(COC2OC(COC3OC(CO)C(O)C(O)C3O)C(O)C(O)C2O)C(O)C(O)C1O` (stereo not given), the GI50 (T47D) was > 100 µM (inactive).

In the case of `CCOC(=O)c1c(-c2ccc(OC)cc2)c(C#N)c(=S)n(C2OC(CO)C(O)C(O)C2O)c1C` (stereo not given), the GI50 (T47D) is reported as > 100 µM (inactive).

For `O=c1[nH]nc(Cc2ccccc2)n1C1CCCC1`, the GI50 (T47D) was > 100 µM (inactive).

In the case of `N/C(CSCCSC/C(N)=N/O)=N\O`, the GI50 (T47D) is reported as > 100 µM (inactive).

`Cc1cc(SCC(=O)c2ccc(Br)cc2)cc(C)[o+]1` was tested, and the GI50 (T47D) was 19.8 µM (inactive).

`CC(C(=O)n1nnc2ccccc21)N(c1ccccc1)c1ccccc1` (stereo not given) was tested, and the GI50 (DLD-1) was > 100 µM (inactive), the GI50 (KM-20L2) was > 100 µM (inactive) and the GI50 (LXFL 529) was > 100 µM (inactive). The GI50 (SNB-78) was > 100 µM (inactive).

For `O=CNNC(=O)Nc1ccc(Cl)cc1`, the GI50 (T47D) was > 100 µM (inactive).

In the case of `COCOC1/C=C/CCCC#C[C@H](C)C(=O)CC1` (stereo not given in full), the GI50 (T47D) is reported as 9.04 µM (inactive).

With `C=CC1(O)CCCC=C1COCc1ccccc1` (stereo not given) the GI50 (T47D) was 64 µM (inactive).

In the case of `CN(C)c1n/c(=N/Cc2cccs2)ss1`, the GI50 (T47D) is reported as > 10 µM (inactive).

For `Oc1ccc(/C=N/CC2CCCN3CCCCC23)cc1` (stereo not given), the GI50 (T47D) was 31.3 µM (inactive).

With `CCCCc1ccc(Nc2nc(Cl)c3ccn(C4CC(Oc5ccc(C)cc5)C(COc5ccc(C)cc5)O4)c3n2)cc1` (stereo not given) the GI50 (T47D) was > 46.5 µM (inactive).

With `CC(C)(C)C#C[P+](c1ccccc1)(c1ccccc1)c1ccccc1` the GI50 (DLD-1) was 0.191 µM (active), the GI50 (HOP-18) was 0.855 µM (active) and the GI50 (KM-20L2) was 0.345 µM (active). The GI50 (LXFL 529) was 0.0586 µM (active), the GI50 (RXF 631) was 1 µM (active) and the GI50 (SNB-78) was 0.339 µM (active).

With `CC1=C(C(=O)Nc2ccc([N+](=O)[O-])cc2)C(c2ccc3c(c2)OCO3)C(C(=O)Nc2ccc([N+](=O)[O-])cc2)=C(C)N1` the GI50 (DLD-1) was 12 µM (inactive), the GI50 (DMS-114) was 8.55 µM (inactive) and the GI50 (HOP-18) was 23.3 µM (inactive). The GI50 (KM-20L2) was 28 µM (inactive), the GI50 (LXFL 529) was 7.96 µM (inactive) and the GI50 (SNB-78) was 68.4 µM (inactive).

In the case of `CC(N)C(C)Cc1ccccc1` (stereo not given), the GI50 (T47D) is reported as > 100 µM (inactive).

With `O=c1[nH]c(-c2ccccc2)nc2cc(Cl)ccc12` the GI50 (DLD-1) was > 100 µM (inactive), the GI50 (DMS-114) was > 100 µM (inactive) and the GI50 (KM-20L2) was > 100 µM (inactive). The GI50 (LXFL 529) was > 100 µM (inactive), the GI50 (RXF 631) was > 100 µM (inactive) and the GI50 (SNB-78) was > 100 µM (inactive). The GI50 (XF498) was > 100 µM (inactive).

In the case of `CC(C)NCC(O)COC(=O)c1cccs1` (stereo not given), the GI50 (DLD-1) is reported as > 100 µM (inactive), the GI50 (KM-20L2) is reported as > 100 µM (inactive) and the GI50 (LXFL 529) is reported as > 100 µM (inactive). The GI50 (RXF 631) was > 100 µM (inactive), the GI50 (SNB-78) was > 100 µM (inactive) and the GI50 (XF498) was > 100 µM (inactive).

In the case of `Cc1cc(=O)oc2cc(OCCCOc3ccc4c(C)cc(=O)oc4c3)ccc12`, the GI50 (DLD-1) is reported as > 100 µM (inactive), the GI50 (DMS-114) is reported as > 100 µM (inactive) and the GI50 (KM-20L2) is reported as > 100 µM (inactive). For the same compound, the GI50 (LXFL 529) was > 100 µM (inactive), the GI50 (RXF 631) was > 100 µM (inactive) and the GI50 (XF498) was 31.3 µM (inactive).

For `CC1CC(C)C(C(O)CC2CC(=O)N(c3ccccc3)C(=O)C2)C(O)C1` (stereo not given), the GI50 (DLD-1) was > 100 µM (inactive), the GI50 (DMS-114) was > 100 µM (inactive) and the GI50 (HOP-18) was > 100 µM (inactive). For the same compound, the GI50 (KM-20L2) was > 100 µM (inactive), the GI50 (LXFL 529) was > 100 µM (inactive) and the GI50 (SNB-78) was > 100 µM (inactive).

In the case of `COc1ccc(O)c(C#N)c1C#N`, the GI50 (KM-20L2) is reported as > 100 µM (inactive), the GI50 (LXFL 529) is reported as > 100 µM (inactive) and the GI50 (SNB-78) is reported as > 100 µM (inactive). For the same compound, the GI50 (XF498) was > 100 µM (inactive).

For `CCCCc1ccc(Nc2nc(Cl)c3ncn(C4CC(Oc5ccc(C)cc5)C(COc5ccc(C)cc5)O4)c3n2)cc1` (stereo not given), the GI50 (T47D) was > 100 µM (inactive).

In the case of `Cc1ccc(S(=O)(=O)N/N=C2/CCC(C(C)(C)C)CC2Br)cc1` (stereo not given), the GI50 (T47D) is reported as 27.4 µM (inactive).

For `CCOC(=O)Cc1nc2ccccc2s1`, the GI50 (DLD-1) was 16.6 µM (inactive), the GI50 (HOP-18) was 24.8 µM (inactive) and the GI50 (KM-20L2) was 27.6 µM (inactive). The GI50 (LXFL 529) was 16 µM (inactive), the GI50 (RXF 631) was 16.8 µM (inactive) and the GI50 (SNB-78) was 18.1 µM (inactive). The GI50 (XF498) was 14.8 µM (inactive).

In the case of `C=C(C)C(=O)O[C@H]1C[C@@]23O[C@@H]2CCC(=C[C@H]2OC(=O)C(=C)[C@H]12)COC3O` (stereo not given in full), the GI50 (T47D) is reported as 35.4 µM (inactive).

With `CN(C)CCNC(=O)c1ccc(NCCCN(C)CCCNc2ccc(C(=O)NCCN(C)C)c3nc4ccccc4c(O)c23)c2c(O)c3ccccc3nc12` the GI50 (T47D) was 0.171 µM (active).

`Cc1cc(NCc2ccccc2)c2ccccc2[n+]1CCCCCCCCCC[n+]1c(C)cc(NCc2ccccc2)c2ccccc21.[O-][Cl+3]([O-])([O-])[O-].[O-][Cl+3]([O-])([O-])[O-]` was tested, and the GI50 (T47D) was 0.321 µM (active).

`O=C(O)CN(c1ccccc1)S(=O)(=O)c1ccc(NC(=O)c2ccccc2)cc1` was tested, and the GI50 (DLD-1) was > 100 µM (inactive), the GI50 (HOP-18) was > 100 µM (inactive) and the GI50 (KM-20L2) was > 100 µM (inactive). The GI50 (LXFL 529) was > 100 µM (inactive) and the GI50 (XF498) was > 100 µM (inactive).

For `CC1C2C=CC1C(c1c3ccc(=O)c(O)c-3oc3c(O)c(O)ccc13)C2C(=O)O` (stereo not given), the GI50 (T47D) was > 100 µM (inactive).

With `CN(C)c1cccc2c(S(=O)(=O)NCCN)cccc12` [DANSYL ETHYLENEDIAMINE] the GI50 (T47D) was > 100 µM (inactive).
